Residues, ends and D or L forms follow the SMILES beside them. A value given as a limit tells only on which side of the number the result lay.

The subject of one series is zebrafish embryos. Kind of series: In vivo toxicity in zebrafish embryos. The conditions noted are these: for mortality of larvae: within 72 h, groups of 30, at least three independent experiments. The method, then: All experimental procedures were performed in compliance with relevant laws and institutional guidelines and were performed under the Italian Ministerial Approval (code 1FF80.N.A5X). Zebrafish eggs were placed in E3 Medium (5 mM NaCl, 0.17 mM KCl, 0.33 mM CaCl2, 0.33 mM MgSO4) and incubated at 28°C. Twenty-four hours post-fertilization (hpf), the eggs were manually dechorionated. Later, embryos were placed in E3 Medium supplemented with a final concentration of 0.2 mM phenylthiourea (PTU, Sigma-Aldrich Co.) to inhibit the production of melanin. Forty-eight hpf embryos were anaesthetized using tricaine at a final concentration of 0.02% (v/v) and placed on agarose plates, to remove the excess water and to facilitate injections. Each condition for toxicity evaluation and bacteraemia model was tested on groups of 30 embryos in at least three independent experiments. Only for biodistribution assay, groups of 10 embryos were used for two independent experiments. The injections of peptide or bacteria were performed in a volume of 4.6 nl delivered in the duct of Cuvier of embryos using capillary glass and a Nanoject II Auto-Nanoliter Injector (Drummond Scientific Co., Broomall, PA, USA) and a SteREO Microscope Discovery.V8 (Zeiss, Oberkochen, Germany, UE).
In vivo toxicity of B7-005 was evaluated by injecting 4.6 nl of sterile PBS containing increasing concentrations of the peptide (up to 64 mg kg^−1) in the duct of Cuvier of embryos. PBS only was injected in untreated control groups. The toxicity of the compound was assessed evaluating the mortality of larvae, kept in E3 medium at 28°C, within 72 h after injection.

The next series deals with MEC-1 cells. Kind of series: Cell viability MTT, MEC-1. In kind it is cell-based, human. To be noted: MEC-1, 24 h, RPMI, n ≥ 9. The procedure:
(§1) Chronic lymphocytic leukaemia-derived MEC-1 cells were cultured in suspension using complete RPMI (EuroClone), supplemented with 100 U ml^−1 penicillin (Sigma), 100 μg ml^−1 streptomycin (Sigma), 2 mM L-glutamine and 10% (v/v) foetal bovine serum (FBS, EuroClone). A549 human lung carcinoma epithelial cells and immortalized human keratinocytes (HaCaT) were grown in adhesion in complete high glucose Dulbecco’s MEM (DMEM, EuroClone) supplemented with 100 U ml^−1 penicillin (Sigma), […] streptomycin (Sigma), 2 mM L-glutamine and 10% (v/v) of FBS. […] All cell lines were counted in a Bürker chamber and diluted to the desired working concentrations.
(§2) Cell viability was evaluated by tetrazolium salt (MTT, or MTS for HUVECs only) tests. […] The next day, absorbance was measured at 570 nm using a Nanoquant Infinite-M200Pro plate reader (Tecan, Switzerland).
(§3) HUVECs, 7500 cells per well, were seeded in HESFM with 10% FBS in a 96-well flat-bottomed microtitre plate (EuroClone SpA, Italy). […] The plate was then incubated for 2 h at 37°C in a humidified 5% CO2 atmosphere, and the absorbance was measured at 490 nm, using a spectrophotometer (PowerWaveX, Bio-Tek Instruments). The cytotoxicity was calculated by comparing the absorbance of peptide-treated samples with that of the untreated control and expressed in percentage of vitality. […]

For another series, the system named is HUVECs. Kind of series: Cell viability MTS, HUVEC. The series is classed as cell-based, human. The conditions noted are these: 24 h. The method, then:
as §1, §2, §3

The conditions of series [1]: ref [20]; cited from earlier work. An excerpt:
The bioavailability in human serum of a peptide intended for clinical systemic use is a critical parameter for the success of peptide-based drugs. […] However, irreversible sequestration of the peptide by serum proteins at higher serum concentrations could also impair its antimicrobial activity. To check if the peptide maintained its availability under conditions closer to the clinical o ...

For orientation: IC50 means the point on the concentration scale where inhibition reaches its midpoint. On to `CC[C@H](C)[C@H](NC(=O)[C@H](CCCNC(=N)N)NC(=O)[C@@H](N)Cc1c[nH]c2ccccc12)C(=O)N[C@@H](CCCNC(=N)N)C(=O)N[C@@H](CCCNC(=N)N)C(=O)N[C@@H](CCCNC(=N)N)C(=O)N[C@@H](Cc1c[nH]c2ccccc12)C(=O)N1CCC[C@H]1C(=O)N[C@@H](CCCNC(=N)N)C(=O)N[C@@H](CC(C)C)C(=O)N1CCC[C@H]1C(=O)N[C@@H](CCCNC(=N)N)C(=O)N1CCC[C@H]1C(=O)N[C@@H](CCCNC(=N)N)C(=O)N[C@@H](Cc1c[nH]c2ccccc12)C(=O)N[C@@H](CCCNC(=N)N)C(=O)O` [B7-005] (H-WRIRRRWPRLPRPRWR-OH), for which the mortality of larvae in the series with zebrafish embryos (24 mg kg^−1, injected in duct of Cuvier, untreated control 10%) is given as at most 20%; in the series on zebrafish embryos (32 mg kg^−1, injected in duct of Cuvier), ~ 40%. In the series on zebrafish embryos (injected in duct of Cuvier, 72 h), the “lowest concentration significantly reducing viability of larvae” value is 32 mg/kg. Further, the highest tolerated amount with zebrafish embryos (injected in duct of Cuvier, zebrafish embryos, 72 h) amounted to 24 mg/kg. Moreover, the IC50 in the series with MEC-1 cells was around 48 µM; in the series on HUVECs (MTS, HESFM + 10% FBS, n ≥ 9), around 256 µM. Also, the “concentration up to which there were no detectable effects” value in the series on HUVECs is at least 128 µM. In series [1], the “proteolytic degradation by serum proteases” value is “excluded rapid proteolytic degradation”.

The values above are taken from PMC11614538, “The proline-rich antimicrobial peptide B7-005: low bacterial resistance, safe for human cells and effective in zebrafish embryo bacteraemia model” (Open Biology, 2024).
